Experimental data taken from PMC9032385, “A2A Adenosine Receptor Antagonists: Are Triazolotriazine and Purine Scaffolds Interchangeable?” (Molecules, 2022).

What was measured:
human recombinant A1AR = biological target: T1, human recombinant A1AR (Homo sapiens, UniProt P30542); assay: Radioligand binding at human A1AR ([3H]CCPA displacement, CHO cell membranes); settings: displacement of [3H]CCPA, n = 3–5, means ± standard errors
T1 construct: expressed in transfected cells; membrane preparation
T1 sequence (P30542 1-326): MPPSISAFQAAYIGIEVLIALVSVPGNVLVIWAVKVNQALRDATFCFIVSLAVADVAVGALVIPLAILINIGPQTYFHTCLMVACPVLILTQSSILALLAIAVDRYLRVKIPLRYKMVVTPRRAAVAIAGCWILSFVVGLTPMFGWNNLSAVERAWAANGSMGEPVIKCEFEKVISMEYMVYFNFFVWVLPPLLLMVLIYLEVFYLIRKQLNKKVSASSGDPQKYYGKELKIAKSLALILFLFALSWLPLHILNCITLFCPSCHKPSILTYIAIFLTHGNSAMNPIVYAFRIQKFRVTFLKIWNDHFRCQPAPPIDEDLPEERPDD
Description: The affinities of the newly synthesized compounds 7–13 and 17–21 were determined in binding studies at human recombinant A1, A2A, and A3 ARs, stably transfected in Chinese hamster ovary (CHO) cells, using [^3H]CCPA (2-chloro-N^6-cyclopentylAdo), [^3H]NECA (5′-N-ethylcarboxamidoAdo), and [^3H]HEMADO (2-hexynyl-N^6-methylAdo) as respective radioligands. Most of the compounds were also evaluated at A2BARs in a functional study using the GloSensor cAMP assay. The results are reported in Table 1 as Ki values in nM (± standard errors). In the case of A2BARs, Ki-values were calculated from IC50-values determined by the inhibition of NECA-stimulated adenylyl cyclase activity.
Cell culture: The Chinese hamster ovary cells (CHO) stably transfected with the desired ARs were grown in DMEM/F12 medium containing 10% FBS (fetal bovine serum), 100 U/mL penicillin, 100 µg/mL streptomycin, 2.5 μg/mL amphotericin B, 1 mM sodium pyruvate, 0.1 mg/mL genetecina (G418), and incubated at 37 °C in a gaseous mixture of 5% CO2: […].
Preparation of membranes: Cell membranes for binding assays were prepared mechanically detaching the cells from the petri and suspending them in a cold hypotonic buffer (5 mM Tris/HCl, 2 mM EDTA, pH 7.4). The cell suspension was homogenized (Ultra-Turrax, 2 × 15 s at maximum speed) and the homogenate centrifuged for 10 min (4 °C) to 1000× g. The supernatant was subsequently centrifuged for 30 min (4 °C) at 100,000× g and the pellet containing the membrane proteins was re-suspended in a specific buffer for each receptor subtype (A1: 50 mM Tris/HCl, pH 7.4; A2A: 50 mM Tris/HCl, 10 mM MgCl2, pH 7.4; A3: 50 mM Tris/HCl, 10 mM MgCl2, 1 mM EDTA, pH 8.25). The amount of the protein suspension was determined according to the […] using the BCA Protein Assay Kit (Pierce), frozen in liquid nitrogen, and stored at −80 °C.
Binding assays: The dissociation constants of the radioligand (KD) were calculated through saturation assays, while the dissociation constants of the compounds under study (Ki) were determined by competition experiments. All binding data were calculated by nonlinear regression curves using the software GraphPad Prism 5 (GraphPad Software, San Diego, CA, USA). The increasing concentrations of the radioligand saturation binding ([^3H]-CCPA for the A1 receptor subtype, [^3H]-NECA for the A2A receptor subtype, and [^3H]-HEMADO for the A3 receptor) subtype were incubated in a total volume of 250 μL containing 0.2 U/mL of Ado deaminase (ADA) and 12 micrograms of membrane proteins in the specific buffer. In competition experiments for the A1 receptor subtype, each compound was added at increasing concentrations, to the well containing 1 nM of [^3H]-CCPA, to a final volume of 200 μL. The samples were left to incubate for 3 h at room temperature, filtered in a filter 96-well plate (UniFilter GF/C, Perkin-Elmer Life and Analytical Science, Boston, MA) using the FilterMate Cell Harvester (Perkin-Elmer), and washed 3 times with cold distilled water. After drying the filter plate at 40 °C for 30′, they 20 μL of scintillating liquid (Microscint-20, Perkin-Elmer) was added to each well, and then the radioactivity was quantized with the MicroBeta2 Plate Counter (Perkin-Elmer). The conditions for binding experiments at A2A and A3 receptor subtypes were essentially the same as for the A1AR using [^3H]-NECA (N-ethylcarboxyamideAdo) at a concentration of 10 nM and [^3H]-HEMADO (2-(1-hexyne)-N^6-methylAdo) at a concentration of 1 nM as radioligands, respectively. The samples were incubated with 12 micrograms of protein for 3 h at room temperature and filtered as described above.
The non-specific binding was determined in the presence of 1 mM theophylline for the A1AR, or 100 µM R-PIA (N^6-(1-methyl-2-phenylethyl)Ado) for the A2A and A3 receptors.

[1] = system: BV-2 murine microglial cells; assay: RT-PCR expression of inflammatory mediators in LPS-activated BV-2 cells; assay type: cell-based
Description: BV-2 cells were treated with 13 or ANR 94 (10 nM) and activated with 100 ng/mL LPS for 24 h. Total RNA was isolated, and proinflammatory cytokine and enzyme expressions were measured using RT-PCR (Figure 5).
Cell Cultures and Treatments: BV-2 murine microglial cells (a gift from Prof. Elisabetta Blasi of the University of Modena and Reggio Emilia, Modena, Italy) were maintained at 37 °C and 5% CO2 in a humidified incubator and grown in DMEM supplemented with 10% (v/v) low-endotoxin fetal bovine serum (Euroclone—Milan, Italy), 2 mM L-glutamine, 50 U/mL penicillin, and 50 μg/mL streptomycin (Sigma-Aldrich–Merck, Milan, Italy). Cells were seeded at 50,000 cells/mL in 96-well tissue culture plates for the viability assay, in 6-well tissue culture plates for the Griess assay and RT-PCR assay. BV-2 cells were treated for 24 h with ANR 94 or 13 at different concentrations and then exposed to LPS (100 ng/mL; Sigma-Aldrich–Merck) for a further 24 h.
Real-Time Polymerase Chain Reaction (PCR): At the end of the experiments, total RNA was extracted by BV-2 cells using RNeasy Mini Kit (QIAGEN GmbH, Hilden, Germany). RNA concentraion and quality were measured on a NanoVue Spectrophotometer (GE Healthcare, Milano, Italy). iScript cDNA Synthesis Kit (Bio-Rad, Hercules, CA, USA) was used to synthesize cDNA starting from the extracted RNA, following the supplier’s instructions. PCR was performed by adding 2.5 μL (12.5 ng) of cDNA, 5 μL SsoAdvanced Universal SYBR Green Supermix (Bio-Rad), and 0.5 μL (500 nM) of each primer (Table 2) to a PCR tube. cDNA amplification was started at 95 °C for 30 s to activate the polymerase, followed by 40 cycles of 5 s at 95 °C and 30 s at 60 °C. Normalized expression levels were calculated relative to the control cells according to the 2^−ΔΔCT method.

[2] = 10 nM for 24 h, then 100 ng/mL LPS 24 h

CCn1c(-c2ccco2)nc2c(N)nc(NCCc3ccc(O)cc3)nc21 [compound 13, 4-(2-((6-Amino-9-ethyl-8-(furan-2-yl)-9H-purin-2-yl)amino)ethyl)phenol]
Ki (human recombinant A1AR): 0.051 µM | IL-10 mRNA expression ([1]; 10 nM before 100 ng/mL LPS 24 h): maintained IL-10 expression to a level comparable to the control cells | COX-2 mRNA expression vs LPS [1, 2]: significantly reduced the expression | IL-1β mRNA expression vs LPS [1, 2]: significantly reduced the expression | IL-6 mRNA expression vs LPS [1, 2]: significantly reduced the expression | iNOS mRNA expression vs LPS [1, 2]: significantly reduced the expression | NLRP3 mRNA expression vs LPS ([1]; 10 nM pre-treatment, 100 ng/mL LPS 24 h): significantly reduced
